Patent US20190390220A1, “Compositions and Methods of Increasing Aphid Resistance in Transgenic Plants” (Boyce Thompson Institute, priority 2018, published 2019)

How the values were obtained:
A. glycines = assay: flavonoid in vitro feeding bioassay on artificial diet, soybean aphid; format: in vivo, Aphis glycines; conditions: artificial diet with 0.01% apigenin; compared with control diet (DMSO); adults
Protocol: (§1) A pea aphid colony (A. pisum strain CWR09/18, kindly supplied by Angela Douglas, Cornell University) was reared on faba bean plants (Viciafaba, var. Windsor; Johnny's Selected Seeds, Winslow, Me., USA) which were grown in Metromix 200 (Scotts, Marysville, Ohio, USA) in a growth chamber at the same condition with soybeans in insect rearing room at 25° C. with a 12:12 h day:night cycle (64). A soybean aphid colony (A. glycines), kindly supplied by Gustavo Macintosh at Iowa State University, was reared on soybean plants (G. max var. William 82) that were grown in same soil and conditions as described for the pea aphid colony.
(§2) For flavonoid in vitro feeding bioassays, the effects of three isoflavones, daidzein, formononetin and prunetin, as well as two flavones, apigenin and kaempferol on A. glycines and A. pisum adults were tested by rearing 30 insects on an artificial diet (65) in membrane feeding tubes. Adults were fed an artificial diet containing one of the following treatments, 0.01% apigenin, 0.2% daidzein, 0.01% prunetin, 0.04% formononetin or 0.02% kaempferol for 6 days in an insect rearing room (25° C. with a 12:12 h day:night cycle). […] The compound concentrations for diet experiments were based on their measured concentrations in soybean leaves. After 6 days of feeding, the number of surviving aphids was counted.

A. pisum = assay: flavonoid in vitro feeding bioassay on artificial diet, pea aphid; format: in vivo, Acyrthosiphon pisum; conditions: artificial diet with 0.2% daidzein, 0.01% prunetin or 0.04% formononetin; compared with control diet (DMSO) or flavones; adults
Protocol: as §1, §2

Anticarsia gemmatalis = conditions: constitutively produced in soybean PI 227697 leaves; cited from earlier work
Trichoplusia ni = conditions: constitutively produced in soybean PI 227697 leaves; cited from earlier work

## O=c1cc(-c2ccc(O)cc2)oc2cc(O)cc(O)c12 [apigenin]
A. glycines
  mortality of SBA: increased

## O=c1c(-c2ccc(O)cc2)coc2cc(O)ccc12 [daidzein]
A. pisum
  mortality of PA: higher mortality

## O=c1c(-c2ccc(O)cc2)coc2cc(O[C@@H]3O[C@H](CO)[C@@H](O)[C@H](O)[C@H]3O)cc(O)c12 [genistin]
Anticarsia gemmatalis
  performance of Anticarsia gemmatalis larvae: negatively affect the performance
Trichoplusia ni
  performance of Trichoplusia ni larvae: negatively affect the performance

## COc1cc(O)c2c(=O)c(-c3ccc(O)cc3)coc2c1 [prunetin]
A. pisum
  mortality of PA: higher mortality
